Drawing on PubChem BioAssay (NCI), this text covers TGI for 15 compounds.

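A five-concentration, 48-hour dose response in 96-well plates underlies each endpoint, interpolated linearly between surrounding concentrations. The concentration for full growth arrest is given as TGI.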

Test systems include EKVX NSCLC; UO-31 renal; COLO 205 colon; MDA-MB-231 breast; MALME-3M melanoma; A549 NSCLC; CCRF-CEM leukemia; OVCAR-3 ovarian; 786-0 renal; T-47D breast.
Common to all, as to assay: NCI-60 cell line screen, 48 h

`Cn1c(=O)c2[nH]cnc2n(C)c1=O`: the TGI with EKVX NSCLC, in the experiment with UO-31 renal, with COLO 205 colon, with MDA-MB-231 breast, with MALME-3M melanoma and in the experiment on A549 NSCLC was more than 100 µM in each case. The TGI in the experiment with CCRF-CEM leukemia, with OVCAR-3 ovarian, with 786-0 renal and in the experiment with T-47D breast was more than 100 µM each time.

As for `CC(=O)N/N=C1\NN(C(C)=O)C2(S1)C(=O)Nc1ccccc12` (stereo not drawn), the TGI in the experiment with EKVX NSCLC, in the experiment on UO-31 renal, in the experiment on MDA-MB-231 breast, with MALME-3M melanoma, in the experiment on CCRF-CEM leukemia and in the experiment with OVCAR-3 ovarian was more than 100 µM each time. Further, the TGI in the experiment with 786-0 renal and in the experiment on T-47D breast was more than 100 µM in each case.

Turning to `Cc1cn(C2CC(O)C(Cn3cc(Cn4nc(Br)c(=O)[nH]c4=O)nn3)O2)c(=O)[nH]c1=O` (stereo not drawn), the TGI with EKVX NSCLC, in the experiment with UO-31 renal, with COLO 205 colon, with MDA-MB-231 breast, with MALME-3M melanoma and with A549 NSCLC was more than 100 µM throughout. Besides, the TGI in the experiment with CCRF-CEM leukemia was 14.3 µM; in the experiment on OVCAR-3 ovarian, more than 100 µM; in the experiment on T-47D breast, more than 100 µM.

For the compound `CCn1c2ccccc2c2cc(NC(=O)c3c(C)[nH]c(=O)[nH]c3=S)ccc21`, the TGI is more than 100 µM in the experiment with UO-31 renal; 46.3 µM in the experiment with COLO 205 colon; 58.1 µM with MDA-MB-231 breast; more than 100 µM with MALME-3M melanoma; more than 100 µM with CCRF-CEM leukemia; more than 100 µM with OVCAR-3 ovarian. Also, the TGI in the experiment with T-47D breast is more than 100 µM.

`c1csc(-c2csc(-c3cccs3)c2)c1`: the TGI was more than 100 µM in the experiment on EKVX NSCLC; more than 100 µM with UO-31 renal; 32.8 µM in the experiment with COLO 205 colon; more than 100 µM in the experiment on MDA-MB-231 breast; more than 100 µM in the experiment on MALME-3M melanoma; more than 100 µM in the experiment on A549 NSCLC. The TGI with CCRF-CEM leukemia, in the experiment on OVCAR-3 ovarian, with 786-0 renal and with T-47D breast was more than 100 µM in each case.

`O=C(O)c1cc2c(cc1CC(Cc1ccccc1)C(=O)O)CCC2` (stereo not drawn): the TGI in the experiment on EKVX NSCLC, in the experiment on UO-31 renal, in the experiment on COLO 205 colon, in the experiment with MDA-MB-231 breast, in the experiment on MALME-3M melanoma and in the experiment with A549 NSCLC was more than 100 µM each time. In addition, the TGI in the experiment on CCRF-CEM leukemia, in the experiment on OVCAR-3 ovarian, with 786-0 renal and in the experiment on T-47D breast was more than 100 µM each time.

On to `CCCNC(=O)Cn1c(-c2ccccc2)cc2ccccc21`, for which the TGI in the experiment with EKVX NSCLC, in the experiment with UO-31 renal, in the experiment on COLO 205 colon, with MDA-MB-231 breast, in the experiment with MALME-3M melanoma and in the experiment with A549 NSCLC was more than 100 µM throughout. Moreover, the TGI with CCRF-CEM leukemia, in the experiment on OVCAR-3 ovarian, in the experiment on 786-0 renal and in the experiment on T-47D breast was more than 100 µM throughout.

On to `CC(CN(C)C)C(O)(c1ccccc1)c1ccccc1` (stereo not drawn), for which the TGI in the experiment on EKVX NSCLC, with UO-31 renal, with COLO 205 colon, in the experiment on MDA-MB-231 breast, with MALME-3M melanoma and in the experiment with A549 NSCLC was more than 100 µM throughout. Moreover, the TGI with CCRF-CEM leukemia, with OVCAR-3 ovarian, in the experiment with 786-0 renal and with T-47D breast was more than 100 µM throughout.

Regarding `Cc1cccc(-c2cc(=O)c3c(C)ccnc3[nH]2)c1`, the TGI in the experiment on EKVX NSCLC was more than 100 µM; in the experiment with COLO 205 colon, 2.68 µM; with MDA-MB-231 breast, more than 100 µM; with A549 NSCLC, more than 100 µM; with CCRF-CEM leukemia, more than 100 µM; in the experiment with 786-0 renal, more than 100 µM. For the same compound, in the experiment on T-47D breast, the TGI is more than 100 µM.

As to `CC(=O)Oc1ccc(-c2c(OC(C)=O)c(OC(C)=O)c(-c3ccc(OC(C)=O)c(OC(C)=O)c3)c(OC(C)=O)c2OC(C)=O)cc1`, the TGI came to 20.2 µM with EKVX NSCLC; 28.8 µM in the experiment with UO-31 renal; 32 µM with COLO 205 colon; 35.4 µM with MDA-MB-231 breast; 30.3 µM in the experiment with MALME-3M melanoma; 37.8 µM in the experiment on A549 NSCLC. Moreover, the TGI stood at 37.4 µM in the experiment on CCRF-CEM leukemia, 30 µM with OVCAR-3 ovarian, 30.6 µM with 786-0 renal and 29.2 µM with T-47D breast.

With `O=c1c2cc(Cl)ccc2n2nnc3ccc(NCCNCCO)c1c32`, the TGI worked out at 4.44 µM in the experiment on EKVX NSCLC; 3.49 µM in the experiment on UO-31 renal; 2.68 µM with COLO 205 colon; 2.81 µM in the experiment with MDA-MB-231 breast; 5.67 µM with MALME-3M melanoma; 2.58 µM in the experiment with A549 NSCLC. Moreover, the TGI is 4.44 µM in the experiment with CCRF-CEM leukemia, 4.16 µM with OVCAR-3 ovarian, 2.02 µM in the experiment with 786-0 renal and 7.52 µM with T-47D breast.

As for `CCOC(=O)c1c(C)n(CCN2CCN(C)CC2)c2ccc(OC)cc12`, the TGI in the experiment with EKVX NSCLC is more than 100 µM; in the experiment on UO-31 renal, more than 100 µM; in the experiment with COLO 205 colon it was 31.6 µM; in the experiment on MDA-MB-231 breast, more than 100 µM; with MALME-3M melanoma, 74.6 µM; in the experiment on A549 NSCLC it was more than 100 µM. Moreover, the TGI is 71.4 µM in the experiment with CCRF-CEM leukemia, more than 100 µM in the experiment with OVCAR-3 ovarian, more than 100 µM in the experiment on 786-0 renal and more than 100 µM in the experiment on T-47D breast.

`COc1ccc(/C=C(\C#N)c2nc(-c3cc4ccccc4oc3=O)cs2)cc1`: the TGI in the experiment with EKVX NSCLC was more than 100 µM; with UO-31 renal it was 57.4 µM; in the experiment with COLO 205 colon it was more than 100 µM; with MDA-MB-231 breast, 31 µM; in the experiment on MALME-3M melanoma it was 91.3 µM; in the experiment on A549 NSCLC, more than 100 µM. The TGI with CCRF-CEM leukemia is more than 100 µM; with 786-0 renal it was 41.4 µM; with T-47D breast it was more than 100 µM.

Consider `CCOC(=O)Cn1c(C)nc2nn(Cc3ccccc3)cc2c1=O`, for which the TGI in the experiment with EKVX NSCLC, in the experiment with UO-31 renal, with MDA-MB-231 breast, with MALME-3M melanoma, in the experiment with A549 NSCLC and in the experiment on CCRF-CEM leukemia was more than 100 µM in each case. Further, the TGI in the experiment with OVCAR-3 ovarian, in the experiment with 786-0 renal and with T-47D breast was more than 100 µM in each case.

Take `COc1ccc(C2=C(N)c3ccccc3C2=O)cc1`: the TGI in the experiment on EKVX NSCLC, in the experiment on COLO 205 colon, in the experiment on MDA-MB-231 breast, in the experiment on MALME-3M melanoma, in the experiment on A549 NSCLC and with CCRF-CEM leukemia was more than 100 µM throughout. Further, the TGI with OVCAR-3 ovarian, with 786-0 renal and with T-47D breast was more than 100 µM in each case.
